Data on two compounds can be found in ChEMBL document CHEMBL4616633, “Citral Inhibits the Inflammatory Response and Hyperalgesia in Mice: The Role of TLR4, TLR2/Dectin-1, and CB2 Cannabinoid Receptor/ATP-Sensitive K+ Channel Pathways” (J Nat Prod, 2020).

Calls of active or inactive are those of the source. No cut-off for these calls is given here.

Series [1] has as its system Mus musculus. Description: Inhibition of zymosan-induced TLR2/Dectin-1 Signaling Pathway assessed as reduction in paw edema in Swiss mouse at 0.5 mg/kg, sc pretreated for 1 hr followed by […] and measured after 48 hrs relative to control. Type of series: functional.
Series [2] concerns Mus musculus. In words: Inhibition of carrageenan-induced thermal allodynia in Swiss mouse at 0.5 mg/kg, sc pretreated for 1 hr followed by carrageenan-stimulation and measured after 6 hrs relative to control. It is filed as functional.
For series [3], the system named is Mus musculus. In words: Inhibition of carrageenan-induced paw edema in Swiss mouse at 0.5 mg/kg, sc pretreated for 1 hr followed by carrageenan-stimulation and measured after 6 hrs relative to control. Type of series: functional.
Series [4] can be described thus: Psychoactive effect in Swiss mouse assessed as antinociceptive effect by measuring paw withdrawal latencies at 1.5 mg/kg, ip and measured for 6 hrs. It is filed as ADME, organism-based. To be noted: in vivo.
For series [5], the system named is Mus musculus. In words: Inhibition of carrageenan-induced paw edema in Swiss mouse at 1.5 mg/kg, ip pretreated for 30 mins followed by carrageenan-stimulation and measured after 6 hrs. Type of series: functional, organism-based.
A short description of series [6]: Psychoactive effect in Swiss mouse assessed as catalepsy effect at 1.5 mg/kg, ip and measured for 6 hrs. It is filed as ADME, organism-based. To be noted: in vivo.
Series [7] can be described thus: Psychoactive effect in Swiss mouse assessed as reduction in locomotor activity by measuring change in distance travelled at 1.5 mg/kg, ip and measured for 6 hrs. It is filed as ADME, organism-based. To be noted: in vivo.
Series [8] in a line: Psychoactive effect in Swiss mouse assessed as hypothermic effects at 1.5 mg/kg, ip and measured for 6 hrs by thermometric method. It is filed as ADME, organism-based. To be noted: in vivo.

Turning to `C[C@@H]1C[C@H]2[C@@H]3CCC4=CC(=O)C=C[C@]4(C)[C@@]3(F)[C@@H](O)C[C@]2(C)[C@@]1(O)C(=O)CO` [DEXAMETHASONE], the inhibition in vivo at 0.5 mg/kg stood at 45% in the series with Mus musculus [1], 72% in the series with Mus musculus [2] and 82% in the series on Mus musculus [3].

Consider `Cc1c(C(=O)c2cccc3ccccc23)c2cccc3c2n1[C@H](CN1CCOCC1)CO3` [WIN-552122], for which the Activity result in series [4], in series [6], in series [7] and in series [8] was “Toxic” in each case. The inhibition entry in the series with Mus musculus [5] was “Active”.
